The nature of data set [1]: Pharmacokinetics of Compound KC-8 following PO administration to dogs, Study B. In kind it is in vivo, dog. The conditions noted are these: 4.55 to 18.2 mg/kg. The protocol:
Compound KC-8 was also dosed to dogs in a separate experiment at the doses indicated in Table 2B, and samples were collected at various times over a 48-h period. Otherwise, the procedures were the same as that described for Study A.

A further data set has as its target T1, trypsin (Bos taurus, UniProt P00760).
T1 construct: purchased Sigma-Aldrich T8003; host or cells: bovine pancreas
T1 sequence (P00760 24-246): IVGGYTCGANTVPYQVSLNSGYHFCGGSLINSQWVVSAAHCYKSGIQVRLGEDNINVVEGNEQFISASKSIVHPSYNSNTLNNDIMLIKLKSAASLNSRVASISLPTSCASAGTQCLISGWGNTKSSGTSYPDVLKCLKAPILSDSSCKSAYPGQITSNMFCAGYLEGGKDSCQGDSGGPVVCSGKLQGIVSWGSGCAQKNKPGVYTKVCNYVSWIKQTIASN
Nature of the data set: In vitro trypsin-mediated prodrug cleavage. In kind it is biochemical, bovine. The following applies: bovine, trypsin from bovine pancreas; 0.761 mM KC-8•2HCl, Tris pH 8, 37° C.; footnote: adjusted to 4815 BAEE U/mL trypsin. The protocol: (§1) The reactions were conducted at 37° C. for 24 h.
(§2) Table 3 indicates the results of exposure of Compound KC-8 to trypsin. […] Table 3 also indicates the cyclization rate of the cyclizable spacer leaving group of Compound KC-22. The results are expressed as half-life of compound disappearance.

Data set [2] deals with T2, trypsin from bovine pancreas (Bos taurus, UniProt P00760).
T2 construct: purchased Sigma-Aldrich T8003; host or cells: bovine pancreas
T2 sequence (P00760 24-246): T1 sequence (P00760 24-246)
Nature of the data set: In vitro trypsin-mediated prodrug cleavage. The data set is classed as biochemical. The protocol: as §1, §2

Data set [3] can be described thus: Pharmacokinetics following PO administration to dogs, Study A (oxycodone in plasma).
The nature of data set [4]: Spacer leaving group cyclization release rate in phosphate buffer. The data set is classed as physicochemical. The conditions noted are these: 2.18 mM initial, 50 mM pH 7.4 phosphate buffer, 20° C.
Source text: as §2

Setting [5] is: male, beagle, dog, plasma, po, 2 mg/kg.

From patent publication US8962547B2 (Signature Therapeutics, Inc., priority 2011, dated 2015) come the findings set out here.

For `COc1ccc2c3c1O[C@H]1C(OC(=O)N(C)CC(C)(C)CNC(=O)[C@H](CCCNC(=N)N)NC(=O)CNC(=O)CC(=O)O)=CC[C@@]4(O)[C@@H](C2)N(C)CC[C@]314` [Compound KC-8, N-1-[3-(oxycodone-6-enol-carbonyl-methyl-amino)-2,2-dimethyl-propylamine]-arginine-glycine-malonic acid], in data set [1], the “oral PK profile in dogs” value is “reproducible oral PK profile in dogs that is dose proportional”. The half-life at 0.761 mM at trypsin is 11.3 ± 0.48 min. In addition, the OC formation rate in data set [2] (0.761 mM KC-8•2HCl, Tris pH 8, 37° C.) amounted to 0.296 ± 0.044 μmol/h/BAEE U. In addition, in data set [2] (in vitro), the cleavage by trypsin entry is given as “can be cleaved by trypsin”. Besides, in data set [3] (dogs, PO), the “oxycodone PK profile compared to administration of oxycodone” value was “suppressed oxycodone Cmax, delayed oxycodone Tmax and extended oxycodone exposure time (AUC)”; the “release of oxycodone into dog plasma compared to Compound KC-3” value was “significantly enhanced release of oxycodone into dog plasma (higher Cmax and AUC)”.

In data set [4], `COc1ccc2c3c1O[C@H]1C(OC(=O)N(C)CC(C)(C)CN)=CC[C@@]4(O)[C@@H](C2)N(C)CC[C@]314` [Compound KC-22, N-1-[3-(oxycodone-6-enol-carbonyl-methyl-amino)-2,2-dimethyl-propylamine]] displayed a Disappearance half-life of 624 ± 0.36 min.

`COc1ccc2c3c1O[C@H]1C(=O)CC[C@@]4(O)[C@@H](C2)N(C)CC[C@]314.Cl` [Oxycodone, oxycodone HCl, reference compound]: in data set [3] (setting [5]), the exposure (AUC) came to 418 ± 54 ng·h/mL, the highest level (Cmax) was 193 ± 69 ng/mL and the Tmax amounted to 30 min.

Consider “N-1-[2-(oxycodone-6-enol-carbonyl-methyl-amino)-ethylamine]-arginine-malonic acid [Compound KC-3]”, for which, in data set [3] (oxycodone in dog plasma, 4.15 mg/kg ([…]) PO, LLOQ […]), the “OC Cmax ± sd” value came out at 10.2 ± 3.3 ng/mL. Further, the “AUC ± sd 0-24 h” value in data set [3] (oxycodone in dog plasma, 4.15 mg/kg PO) amounted to 65.6 ± 22 ng·h/mL.
